Read-outs that look alike come from different tables or passages of the source.
How the values were obtained:
[1] = test system: P. viticola cellulose synthase 2 (PvCesA2), cytoplasmic portion aa 331 to 790; assay type: binding, Plasmopara viticola; conditions: growth on selective media lacking adenine or histidine, 10 mM 3-AT; sequence found at least three times among 30 colonies
Plasmopara viticola [2] = assay type: cell-based; conditions: 5 and 7 dpi; for effect on P. viticola disease severity on leaf disks: 200 μM peptide co-inoculated with sporangia, Pinot noir leaf disks, ten replicates from two experiments
Plasmopara viticola [3] = assay type: cell-based
Plasmopara viticola [4] = assay type: in vivo; conditions: for disease severity of plants: average ± standard error
Escherichia coli = assay type: cell-based; conditions: 100 μM and 200 μM in LB medium, 37 °C, OD600 every hour for 5 h, three biological replicates
[5] = test system: Agrobacterium tumefaciens; assay type: cell-based; conditions: 100 μM and 200 μM in LB medium, 28 °C, OD600 every hour for 5 h, three biological replicates
[6] = test system: Bacillus amyloliquefaciens (subsp. plantarum) strain D 747; assay type: cell-based; conditions: 100 μM and 200 μM in LB medium, 37 °C, OD600 every hour for 5 h, three biological replicates
Erysiphe necator = assay type: cell-based; conditions: 200 μM and 400 μM, young grapevine leaves, 14 dpi
Phytophthora infestans = assay type: cell-based; conditions: 100 μM and 200 μM in pea agar medium, 20 °C, radial growth at 4, 5 and 7 dpi
[7] = test system: Plasmopara viticola zoospores; assay type: cell-based; conditions: 200 μM, leaf disks, 6 h in the dark at 22 °C, SEM
HKC8 cells = conditions: 400 μM, HKC8 at 1 K, 3 K and 6 K cells/100 μl, four biological replicates
[8] = test system: Pinot noir leaves, photosystem II; conditions: grapevine leaves, 7 days after treatment, average ± SD of 3 measurements

Substance: H-RLTAQCRL-OH [NoPv1, peptide aptamer of 8 L-amino acid residues, RLTAQCRL, isolated with PvCesA2 as bait]
- peptide aptamers interacting with PvCesA2 (yeast two-hybrid library screening) [1]: interacting with PvCesA2
- effect on P. viticola disease severity on leaf disks (Plasmopara viticola [2]): completely inhibit
- anti-oomycete activity on leaf disks (Plasmopara viticola [2]; co-inoculation, 20 μM): no anti-oomycete activity
- P. viticola disease severity on leaf disks (Plasmopara viticola [2]; co-inoculation, 50 μM): almost half of the control sample
- percentage of leaf disk area covered by P. viticola sporulation (Plasmopara viticola [2]; co-inoculation, concentrations equal or higher than 100 μM): below 10%
- treatment efficacy, preventive application (Plasmopara viticola [3]; 400 μM applied 7 days before inoculation (-7 d), leaf disks): effective in suppressing P. viticola infection
- treatment efficacy, post-inoculation (curative) application (Plasmopara viticola [3]; 400 μM applied +1 h to +2 d after P. viticola inoculation, leaf disks): efficacy decreased very rapidly
- Disease severity (Plasmopara viticola [3]; 400 μM sprayed +1 h after inoculation, leaf disks, 7 dpi, mean of ten replicates): 18.00%
- Disease severity (Plasmopara viticola [3]; 400 μM sprayed +1 d after inoculation, leaf disks, 7 dpi, mean of ten replicates): 23.76%
- Disease severity (Plasmopara viticola [3]; 400 μM sprayed +2 d after inoculation, leaf disks, 7 dpi, mean of ten replicates): 36.00%
- Disease severity (Plasmopara viticola [3]; 400 μM sprayed -2 h before inoculation, leaf disks, 7 dpi, mean of ten replicates): 1.58%
- Disease severity (Plasmopara viticola [3]; 400 μM sprayed -6 h before inoculation, leaf disks, 7 dpi, mean of ten replicates): 5.62%
- Disease severity (Plasmopara viticola [3]; 400 μM sprayed -1 d before inoculation, leaf disks, 7 dpi, mean of ten replicates): 6.17%
- Disease severity (Plasmopara viticola [3]; 400 μM sprayed -2 d before inoculation, leaf disks, 7 dpi, mean of ten replicates): 3.96%
- Disease severity (Plasmopara viticola [3]; 400 μM sprayed -5 d before inoculation, leaf disks, 7 dpi, mean of ten replicates): 2.23%
- Disease severity (Plasmopara viticola [3]; 400 μM sprayed -7 d before P. viticola inoculation, leaf disks, 7 dpi, mean of ten replicates from two experiments): 9.72%
- P. viticola severity on leaf disks after nebulization (Plasmopara viticola [3]; 400 μM, Potter Precision Spray Tower, 7 dpi): reduction of P. viticola severity
- Disease severity (Plasmopara viticola [3]; 400 μM, co-inoculation 0 h, leaf disks, 7 dpi, mean of ten replicates): 2.88%
- efficacy on leaf disks after nebulization compared with copper fungicide (Plasmopara viticola [3]; 800 μM vs Kocide 2000 1.42 g l^-1, Potter Precision Spray Tower): as effective as the copper-based fungicide Kocide 2000
- lowest concentration that maximises the efficacy against P. viticola (Plasmopara viticola [3]; nebulization on leaf disks, Potter Precision Spray Tower): 400 µM
- disease severity of plants (Plasmopara viticola [4]; 400 μM sprayed immediately before P. viticola inoculation, greenhouse Pinot noir plants): 27.3 ± 5.2%
- disease severity of plants (Plasmopara viticola [4]; 800 μM sprayed immediately before P. viticola inoculation, greenhouse plants): 26.2 ± 4.2%
- NoPv1 efficacy compared to control plants (Plasmopara viticola [4]; 1 mM applied at -7 d, -2 d and 0 h, greenhouse plants, 7 dpi): higher than 60%
- Disease severity (Plasmopara viticola [4]; 1 mM sprayed -7 d before inoculation, greenhouse plants, 7 dpi, mean of ten replicates from two experiments): 15.89%
- disease severity of plants (Plasmopara viticola [4]; 1 mM sprayed immediately before P. viticola inoculation, greenhouse plants): 20.8 ± 2.4%
- disease severity of plants (Plasmopara viticola [4]; 2 mM sprayed immediately before P. viticola inoculation, greenhouse plants): 21.1 ± 4.2
- lowest concentration showing a P. viticola severity comparable to the copper treatment (Plasmopara viticola [4]; greenhouse plants, sprayed immediately before inoculation): 1 mM
- growth inhibition of E. coli (Escherichia coli): not able to inhibit the growth
- growth inhibition of A. tumefaciens [5]: not able to inhibit the growth
- growth inhibition of B. amyloliquefaciens [6]: not able to inhibit the growth
- effect on E. necator disease severity on leaves (Erysiphe necator): not able to reduce the disease severity on leaves
- inhibition of P. infestans growth in vitro (Phytophthora infestans): able to inhibit P. infestans growth in vitro
- zoospores in which a germ tube primordium could be detected ([7]; 5 zoospores out of 160): 3.12%
- P. viticola germ tube formation ([7]; n = 160): unable to develop any germ tube
- cell viability (MTT, absorbance at 570 nm) vs control (HKC8 cells; DMEM-F12, 24 h): No significant differences between control and treated samples
- cell viability (MTT, absorbance at 570 nm) vs control (HKC8 cells; DMEM-F12, 48 h): cytotoxic effects could only be observed at 1 K cell density
- FV/FM, maximum quantum yield of photosystem II ([8]; 400 µM (P1)): 0.73 ± 0.01
- Y(II), effective quantum yield of photosystem II ([8]; 400 µM (P1)): 0.33 ± 0.02
- FV/FM, maximum quantum yield of photosystem II ([8]; 1 mM (P2)): 0.74 ± 0.01
- Y(II), effective quantum yield of photosystem II ([8]; 1 mM (P2)): 0.33 ± 0.01

Substance: H-MLLHSELC-OH [NoPv3, 8 a.a. peptide aptamer identified by yeast two-hybrid assay using PvCesA2 as bait]
- peptide aptamers interacting with PvCesA2 (yeast two-hybrid library screening) [1]: interacting with PvCesA2
- effect on P. viticola disease severity on leaf disks (Plasmopara viticola [2]): no effect

Substance: H-LFPFVSSM-OH [NoPv2, 8 a.a. peptide aptamer identified by yeast two-hybrid assay using PvCesA2 as bait]
- peptide aptamers interacting with PvCesA2 (yeast two-hybrid library screening) [1]: interacting with PvCesA2
- effect on P. viticola disease severity on leaf disks (Plasmopara viticola [2]): intermediate
